DBAASP
≈ marks a conversion by molar mass, not a printed value. Where “and” joins values, the source holds several entries; their conditions need not be identical. Equal values may be shown once.

Assays:
Assay in all cases: ≥ marks a high value that may be exact or a test limit, other limits are often not marked, values filed in µg/mL are converted to µM
[1] = system: Pseudomonas syringae pv. tomato DC3000
Alternaria alternata = system: Alternaria alternata
Cladosporium herbarum = system: Cladosporium herbarum
Botrytis cinerea = system: Botrytis cinerea
[2] = system: Xanthomonas vesicatoria DSM 50861
Fusarium solani = system: Fusarium solani
[3] = system: Pseudomonas corrugata DSM 7228
[4] = system: Clavibacter michiganensis subsp. michiganensis DSM 46294
[5] = system: Pseudomonas syringae pv. syringae DSM 10604
[6] = system: Pectobacterium carotovorum subsp. carotovorum DSM 30168
[7] = system: Staphylococcus aureus ATCC 2592
Bacillus subtilis = system: Bacillus subtilis
Candida albicans SC5314 = system: Candida albicans SC5314
[8] = system: Escherichia coli ATCC 25922
[9] = system: Staphylococcus aureus ATCC 29213
[10] = system: Pseudomonas aeruginosa ATCC 27853
[11] = system: Salmonella enterica subsp. enterica serovar Pullorum C79-13
[12] = system: Staphylococcus epidermidis ATCC 12228
[13] = system: Enterococcus faecalis ATCC 29212
[14] = system: Staphylococcus aureus ATCC 43300
Escherichia coli UB1005 = system: Escherichia coli UB1005
[15] = system: Bacillus subtilis CMCC 63501
[16] = system: Salmonella enterica subsp. enterica serovar Typhimurium C77-31
[17] = system: Pseudomonas aeruginosa ATCC 10145
[18] = system: Acinetobacter baumannii NR-9667
[19] = system: Acinetobacter baumannii ATCC 19606
[20] = system: Pseudomonas aeruginosa ATCC 25619
[21] = system: Acinetobacter baumannii ATCC BAA-747
[22] = system: Pseudomonas aeruginosa 1109
[23] = system: Pseudomonas aeruginosa PAO1
[24] = system: Pseudomonas aeruginosa ATCC 35032
[25] = system: Pseudomonas aeruginosa ATCC 9721
[26] = system: Acinetobacter baumannii ATCC BAA-1605
[27] = system: Pseudomonas aeruginosa ATCC BAA-1744
[28] = system: Pseudomonas aeruginosa ATCC 9027
[29] = system: Pseudomonas aeruginosa ATCC 15442
[30] = system: Candida tropicalis CGMCC 2.1975
Candida albicans CA2761 = system: Candida albicans CA2761
Escherichia coli EC183 = system: Escherichia coli EC183
[31] = system: Candida albicans CGMCC 2.2086
[32] = system: Staphylococcus aureus ATCC 25923
[33] = system: Candida krusei CGMCC 2.1857

| MIC [8] | MIC [9] | MIC [10] | MIC [12] | MIC (Escherichia coli UB1005) | MIC [15] | MIC [16] | MIC [30] | MIC (Candida albicans CA2761) | MIC (Escherichia coli EC183) | MIC [31] | MIC [32] | MIC [33] | Compound | other results |
| --- | --- | --- | --- | --- | --- | --- | --- | --- | --- | --- | --- | --- | --- | --- |
| – | – | – | – | – | – | – | – | – | – | – | – | – | C[C@H](NC(=O)[C@H](Cc1cnc[nH]1)NC(=O)[C@H](CO)NC(=O)[C@@H](N)CC(=O)O)C(=O)N[C@@H](CCCCN)C(=O)N[C@@H](CCCN=C(N)N)C(=O)N[C@@H](Cc1cnc[nH]1)C(=O)N[C@@H](Cc1cnc[nH]1)C(=O)NCC(=O)N[C@H](C(=O)N[C@@H](CCCCN)C(=O)N[C@@H](CCCN=C(N)N)C(=O)N[C@@H](CCCCN)C(=O)N[C@@H](Cc1ccccc1)C(=O)N[C@@H](Cc1cnc[nH]1)C(=O)N[C@@H](CCC(=O)O)C(=O)N[C@@H](CCCCN)C(=O)N[C@@H](Cc1cnc[nH]1)C(=O)N[C@@H](Cc1cnc[nH]1)C(=O)N[C@@H](CO)C(=O)N[C@@H](Cc1cnc[nH]1)C(=O)N[C@@H](CCCN=C(N)N)C(=O)NCC(=O)N[C@H](C(=O)O)[C@@H](C)O)[C@@H](C)O [DSHAKRHHGTKRKFHEKHHSHRGT] | MIC [1]: 22 µM (≈ 64 µg/mL); MIC (Alternaria alternata): 22 µM (≈ 64 µg/mL); MIC (Cladosporium herbarum): 22 µM (≈ 64 µg/mL); MIC (Botrytis cinerea): 22 µM (≈ 64 µg/mL); MIC [2]: 22 µM (≈ 64 µg/mL); MIC (Fusarium solani): 5.49 µM (≈ 16 µg/mL); MIC [3]: 22 µM (≈ 64 µg/mL); MIC [4]: 22 µM (≈ 64 µg/mL); MIC [5]: 22 µM (≈ 64 µg/mL); MIC [6]: 22 µM (≈ 64 µg/mL) |
| 2.1 µM (≈ 4.6 µg/mL) | – | – | – | – | – | – | – | – | – | – | – | – | CC(C)[C@H](N)C(=O)N[C@@H](CCCCN)C(=O)N[C@@H](CCCN=C(N)N)C(=O)N[C@@H](Cc1c[nH]c2ccccc12)C(=O)N[C@@H](CCCCN)C(=O)N[C@@H](CCCCN)C(=O)N[C@@H](Cc1c[nH]c2ccccc12)C(=O)N[C@@H](Cc1ccccc1)C(=O)N[C@@H](CCCN=C(N)N)C(=O)N[C@@H](CCCCN)C(=O)N[C@@H](Cc1c[nH]c2ccccc12)C(=O)N[C@@H](CCCCN)C(=O)N[C@@H](CCCCN)C(=O)N[C@@H](Cc1c[nH]c2ccccc12)C(=O)N[C@H](C(N)=O)C(C)C [VKRWKKWFRKWKKWV] | MIC [7]: 8.5 µM (≈ 18.6 µg/mL); MIC (Bacillus subtilis): 4.3 µM (≈ 9.41 µg/mL); MIC (Candida albicans SC5314): 4.3 µM (≈ 9.41 µg/mL) |
| – | 4 µM and 8 µM | 16 µM (≈ 37.7 µg/mL) | 8 µM (≈ 18.8 µg/mL) | 2 µM (≈ 4.71 µg/mL) | 4 µM (≈ 9.42 µg/mL) | 4 µM (≈ 9.42 µg/mL) | – | – | – | – | – | – | CC[C@H](C)[C@H](NC(=O)[C@H](CCCN=C(N)N)NC(=O)[C@H](CCCCN)NC(=O)[C@H](Cc1ccccc1)NC(=O)[C@H](CCC(=O)O)NC(=O)[C@H](CCCCN)NC(=O)CN)C(=O)N[C@H](C(=O)N[C@@H](CCCCN)C(=O)N[C@@H](Cc1c[nH]c2ccccc12)C(=O)N1CCC[C@H]1C(=O)N[C@@H](Cc1c[nH]c2ccccc12)C(=O)N[C@@H](Cc1c[nH]c2ccccc12)C(=O)N1CCC[C@H]1C(=O)N[C@@H](Cc1c[nH]c2ccccc12)C(=O)N[C@@H](CCCN=C(N)N)C(=O)N[C@@H](CCCN=C(N)N)C(N)=O)C(C)C [GKEFKRIVKWPWWPWRR] | MIC [11]: 2 µM (≈ 4.71 µg/mL); MIC [13]: 4 µM (≈ 9.42 µg/mL); MIC [14]: 2 µM (≈ 4.71 µg/mL) |
| – | – | 256 µM (≈ 438 µg/mL) | – | – | – | – | – | – | – | – | – | – | CC[C@H](C)[C@H](NC(=O)[C@H](CCCCN)NC(=O)[C@H](CCCCN)NC(=O)[C@H](Cc1c[nH]c2ccccc12)NC(=O)[C@@H](NC(=O)[C@H](CCCCN)NC(=O)[C@@H](NC(=O)[C@H](CCCN=C(N)N)NC(=O)[C@H](CCCN=C(N)N)NC(=O)[C@H](CCCCN)NC(=O)[C@@H](N)Cc1c[nH]c2ccccc12)[C@@H](C)CC)[C@@H](C)CC)C(=O)N[C@@H](CCCN=C(N)N)C(=O)O [WKRRIKIWKKIR] | MIC [17]: ≥ 256 µM; MIC [18]: ≥ 256 µM; MIC [19]: > 256 µM; MIC [20]: ≥ 256 µM; MIC [21]: ≥ 256 µM; MIC [22]: ≥ 128 µM; MIC [23]: > 256 µM; MIC [24]: ≥ 256 µM; MIC [25]: ≥ 256 µM; MIC [26]: ≥ 256 µM; MIC [27]: ≥ 256 µM; MIC [28]: > 256 µM; MIC [29]: ≥ 256 µM |
| 2 µM (≈ 5.41 µg/mL) | 4 µM (≈ 10.8 µg/mL) | – | 4 µM (≈ 10.8 µg/mL) | 2 µM (≈ 5.41 µg/mL) | 1 µM (≈ 2.7 µg/mL) | 1 µM (≈ 2.7 µg/mL) | 1 µM (≈ 2.7 µg/mL) | 8 µM (≈ 21.6 µg/mL) | 1 µM (≈ 2.7 µg/mL) | 8 µM (≈ 21.6 µg/mL) | 4 µM (≈ 10.8 µg/mL) | 2 µM (≈ 5.41 µg/mL) | CC[C@H](C)[C@H](NC(=O)[C@H](Cc1c[nH]c2ccccc12)NC(=O)[C@H](CCCCN)NC(=O)[C@H](CC(C)C)NC(=O)[C@@H](NC(=O)[C@H](CCCCN)NC(=O)CNC(=O)[C@@H](NC(=O)[C@H](CCCCN)NC(=O)[C@H](CCCCN)NC(=O)[C@H](CC(C)C)NC(=O)[C@H](CCCN=C(N)N)NC(=O)[C@H](CCCCN)NC(=O)[C@H](CCCN=C(N)N)NC(=O)[C@@H](NC(=O)[C@H](CCCCN)NC(=O)[C@H](CCCCN)NC(=O)[C@H](CCCN=C(N)N)NC(=O)[C@H](CC(C)C)NC(=O)[C@H](CCCN=C(N)N)NC(=O)[C@@H](N)CCCN=C(N)N)[C@@H](C)O)[C@@H](C)CC)C(C)C)C(N)=O [RRLRKKTRKRLKKIGKVLKWI] | – |
| 2 µM (≈ 4.56 µg/mL) | 4 µM (≈ 9.12 µg/mL) | – | 4 µM (≈ 9.12 µg/mL) | 2 µM (≈ 4.56 µg/mL) | 1 µM (≈ 2.28 µg/mL) | 2 µM (≈ 4.56 µg/mL) | 2 µM (≈ 4.56 µg/mL) | 8 µM (≈ 18.2 µg/mL) | 1 µM (≈ 2.28 µg/mL) | 16 µM (≈ 36.5 µg/mL) | 8 µM (≈ 18.2 µg/mL) | 4 µM (≈ 9.12 µg/mL) | CC[C@H](C)[C@H](NC(=O)[C@H](Cc1c[nH]c2ccccc12)NC(=O)[C@H](CCCCN)NC(=O)[C@H](CC(C)C)NC(=O)[C@@H](NC(=O)[C@H](CCCCN)NC(=O)CNC(=O)[C@@H](NC(=O)[C@H](CCCCN)NC(=O)[C@H](CCCCN)NC(=O)[C@H](CC(C)C)NC(=O)[C@H](CCCN=C(N)N)NC(=O)[C@H](CCCCN)NC(=O)[C@H](CCCN=C(N)N)NC(=O)[C@@H](NC(=O)[C@H](CCCCN)NC(=O)[C@H](CCCCN)NC(=O)[C@@H](N)CCCN=C(N)N)[C@@H](C)O)[C@@H](C)CC)C(C)C)C(N)=O [RKKTRKRLKKIGKVLKWI] | – |
